Test results as given in patent US11878987B2, “Heterocyclic compound as TRK inhibitor” (Beijing Innocare Pharma Tech Co., Ltd., priority 2018, dated 2024).

What was measured:
TRKA = TRKA (Homo sapiens, UniProt P04629); assay: TRKA activity inhibition test (HTRF kinase assay); format: biochemical; details: humanized recombined TRKA protein, 8.4 μM ATP
Experimental: TRKA Activity Inhibition Test
The effect of the compounds of the invention on TRKA activity was evaluated by in vitro kinase assays
(§1) The experimental methods were summarized as follows:
The in vitro activity of TRKA was measured by the use of a homogeneous time-resolved fluorescence (HTRF) kinase assay kit (Cisbio, NO. 62TKOPEC) through detecting the phosphorylation level of the substrate in the kinase reaction. The reaction buffer contained the following components: reaction buffer of the enzyme in the kit (1×), 5 mM MgCl2, 1 mM DTT; The humanized recombined TRKA protein was expressed and purified by the purification and identification platform of Tsinghua university, and was diluted into kinase solution (3 ng/μl) with the reaction buffer. The substrate reaction solution comprised 0.23 μM biotin-labeled tyrosine kinase substrate and 8.4 μM ATP, which was diluted with reaction buffer. The detection buffer comprised 0.1 ng/μL cage antibody labelled with Eu3+ and 14.375 nM XL665 labeled with streptavidin, which was diluted with reaction buffer.
The compound was dissolved into 100% DMSO and diluted to 100 or 10 μM, then diluted with DMSO in 4 times serial dilution to a minimum concentration of 6.1 or 0.61 nM, and each concentration point was further diluted 40 times with the reaction buffer.
To the 384 well plate (Corning No. 4512), 4 μl of the solution of the test compound and 2 μl of the solution of TRKA kinase were added respectively, then mixed well and incubated at room temperature for 15 minutes. 4 μl of the solution of substrate was then added and the reaction mixture was incubated at room temperature for 60 minutes. A 10 μl detection buffer of the same volume as the reaction mixture was then added, the mixture was mixed well and allowed to stand for 30 minutes at room temperature. The reaction process was monitored at the wavelengths of 620 nm and 665 nm by Envision board reader (Perkin Elmer). The ratio of 665/620 was positively correlated with the phosphorylation level of the substrate, then TRKA kinase activity was determined. […] The inhibition percentage of the test compound on the TRKA activity can be calculated by the following formula: The IC50 value of the compound was calculated at 8 concentration points by use of XLfit software (ID Business Solutions Ltd. UK) through the following formula: Y=Bottom+(Top−Bottom)/(1+10^((log IC50−X)*slope factor)) Of which Y is the inhibition percentage; X is the logarithm of the concentration of the compound to be tested; Bottom is the […] inhibition percentage; Top is the […] inhibition percentage; slope factor is the slope coefficient of the curve.

TRKA G595R = target: T1, TRKA G595R (Homo sapiens, UniProt P04629, G595R); assay: TRKA G595R activity inhibition test (HTRF kinase assay); format: biochemical; details: humanized recombined TRKA G595R protein, 2.9 μM ATP
T1 construct: purchased Signal Chem Life Sciences N16-12BG
T1 sequence (P04629 33-796 G595R): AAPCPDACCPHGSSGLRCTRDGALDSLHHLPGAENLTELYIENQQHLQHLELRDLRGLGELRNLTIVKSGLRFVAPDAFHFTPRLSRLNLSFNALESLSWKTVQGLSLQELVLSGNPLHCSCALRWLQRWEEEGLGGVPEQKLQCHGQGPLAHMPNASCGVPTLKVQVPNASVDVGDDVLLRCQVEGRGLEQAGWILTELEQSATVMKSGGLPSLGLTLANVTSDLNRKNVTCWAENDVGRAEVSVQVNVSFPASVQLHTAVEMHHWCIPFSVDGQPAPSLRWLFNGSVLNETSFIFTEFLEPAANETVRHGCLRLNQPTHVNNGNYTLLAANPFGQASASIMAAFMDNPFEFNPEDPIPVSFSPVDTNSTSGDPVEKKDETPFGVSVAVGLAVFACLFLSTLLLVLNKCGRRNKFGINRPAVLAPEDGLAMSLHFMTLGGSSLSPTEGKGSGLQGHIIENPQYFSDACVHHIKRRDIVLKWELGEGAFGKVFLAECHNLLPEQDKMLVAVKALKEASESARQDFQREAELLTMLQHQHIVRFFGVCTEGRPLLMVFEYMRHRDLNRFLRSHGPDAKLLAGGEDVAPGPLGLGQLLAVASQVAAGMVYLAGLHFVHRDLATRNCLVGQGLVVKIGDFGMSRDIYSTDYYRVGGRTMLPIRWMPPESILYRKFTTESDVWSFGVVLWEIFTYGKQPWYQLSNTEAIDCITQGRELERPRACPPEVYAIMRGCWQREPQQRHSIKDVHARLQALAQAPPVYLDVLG
Experimental: TRKA G595R Activity Inhibition Test:
The effect of the compounds of the invention on the activity of TRKA G595R was evaluated by the in vitro kinase assay.
The experimental method was summarized below:
The in vitro activity of TRKA G595R was measured using a HTRF kinase assay kit (Cisbio, No. 62TKOPEC) by detecting the phosphorylation level of the substrate in the kinase reaction. The reaction buffer contained the following components: the reaction buffer of the enzyme in the kit (1×), 5 mM MgCl2, 1 mM DTT. The humanized recombined TRKA G595R protein (No. N16-12BG, purchased from Signal Chem Life Sciences) was diluted into 0.25 ng/kinase solution with the reaction buffer. The substrate reaction solution comprised 0.51 μM biotin-labeled tyrosine kinase substrate and 2.9 μM ATP, which was diluted with reaction buffer. The detection buffer comprised 0.15 ng/μL cage antibody labelled with Eu3+ and 31.875 nM XL665 labeled with streptavidin, which was diluted with reaction buffer.
The compound was dissolved into 100% DMSO and diluted to 1 mM or 100 μM, then diluted with DMSO in 4 times serial dilution to a minimum concentration of 61 or 6.1 nM, and each concentration point was further diluted 40 times with the reaction buffer.
4 μl of solution of the test compound and 2 μl of solution of TRKA G595R kinase were added to the 384 well plate (Corning No. 4512), mixed well and incubated at room temperature for 15 minutes. Then 4 μl of solution of substrate was added and the reaction mixture was incubated at room temperature for 60 minutes. 10 μl of detection buffer of the same volume as the reaction mixture was then added, the reaction mixture was mixed well and allowed to stand for 30 minutes at room temperature. The reaction process was monitored at the wavelength of 620 nm and 665 nm by Envision board reader (Perkin Elmer). The ratio of 665/620 was positively correlated with the phosphorylation level of the substrate, then TRKA G595R kinase activity was determined. In this experiment, the group without TRKA G595R kinase was used as the negative control (100% inhibition), the group with TRKA G595R but without the test compound was used as the positive control (0% inhibition). The inhibition percentage of the test compound on TRKA G595R activity can be calculated by the following formula: Inhibition percentage=100−100*(signal value of the test compound under specific concentration−signal value of the negative control)/(signal value of the positive control−signal value of the negative control) The IC50 value of the test compound was calculated at 8 concentration points by use of XLfit (ID Business Solutions Ltd. UK) software through the following formula: Y=Bottom+(Top−Bottom)/(1+10^((log IC50−X)*slope factor)) […]

TRKA G667C = target: T2, TRKA G667C (Homo sapiens, UniProt P04629, G667C); assay: TRKA G667C activity inhibition test (HTRF kinase assay); format: biochemical; details: humanized recombined TRKA G667C protein, 2.7 μM ATP
T2 construct: purchased Signal Chem Life Sciences N16-12 CG
T2 sequence (P04629 33-796 G667C): as the sequence (P04629 33-796 G595R) above, with R563G, G635C counted along it
Experimental: TRKA G667C Activity Inhibition Test:
The effect of the compounds of the invention on the activity of TRKA G667C was evaluated by the in vitro kinase assay.
The experimental methods were summarized below:
The in vitro activity of TRKA G667C was measured using a HTRF kinase assay kit (Cisbio, No. 62TKOPEC) by detecting the phosphorylation level of the substrate in the kinase reaction.
The reaction buffer contained the following components: reaction buffer of the enzyme in the kit (1×), 5 mM MgCl2, 1 mM DTT. The humanized recombined TRKA G667C protein (No. N16-12 CG, Signal Chem Life Sciences) was diluted into 0.09 ng/μl kinase solution with the reaction buffer. […]
4 μl of solution of the test compound and 2 μl of solution of TRKA G667C kinase were added to the 384 well plate (Corning No. 4512), mixed well and incubated at room temperature for 15 minutes. […] The reaction process was monitored at the wavelength of 620 nm and 665 nm by Envision board reader (Perkin Elmer). The ratio of 665/620 was positively correlated with the phosphorylation level of the substrate, then TRKA G667C kinase activity was determined. […]
The IC50 value of the compound was calculated at 8 concentration points by XLfit (ID Business Solutions Ltd. UK) software through the following formula: Y=Bottom+(Top−Bottom)/(1+10^((log IC50−X)*slope factor)) […]

KM12 cells = assay: KM12 cell proliferation, luminescent cell viability test (CellTiter-Glo); format: cell-based; details: Homo sapiens, 96 hours, CTG
Experimental: Determination of Median Effective Inhibition Concentration GI50 in KM12 Cells
The effect of the compounds of the invention on the proliferation of KM12 cells was evaluated by the luminescent cell viability test.
as §1
CellTilter-Glo (CTG) detection kit was used. A unique and stable luciferase was used to detect ATP, an indicator of viable cell metabolism. The luminescence signal generated in the experiment was proportional to the number of viable cells in the culture medium, thus the proliferation of KM12 cells was detected.
KM12 cell (purchased from Shanghai Xinyu biological Co.) was cultured in IMDM complete medium (Thermo Fisher, 12440053) containing 10% FBS (GBICO, 10099-141) and 100 units/ml of penicillin streptomycin mixture (Thermofisher, 15140122). When the cell coverage rate in the culture container reached 80-90%, 0.25% trypsin (containing EDTA) (Thermofisher, 25200056) was used to digest and disperse the cells, then they were planted in a white 384 well plate (164610). To each well containing 1000 cells was added 27 μL IMDM complete medium. Then the 384 well plate was cultured overnight in an incubator containing 5% CO2 at 37° C. The compound was dissolved into 100% DMSO and diluted to 1 mM, then diluted with DMSO in 4 times serial dilution to the lowest concentration of 0.061 μM. Each concentration point was further diluted 50 times with IMDM medium. If the IC50 value of the compound was very low, the initial concentration of the compound can be reduced. 3 μl Diluted compound was added into each well, centrifuged and mixed well gently. The medium without cells was used as negative control (100% inhibition), and the group with 0.2% DMSO was used as positive control (0% inhibition).
The 384 well plate was placed in the incubator at 37° C. and 5% CO2 for further incubation. After 96 hours, the plate was taken out and placed at room temperature for 30 minutes. […] Then the cold light signal was read by Envision (Perkin Elmer). […]
The percentage of inhibition of KM12 cell proliferation by the compounds can be calculated by the following formula: Inhibition percentage=100−100*{[(Signalcompound−Signalnegative control)−T0control]/[(Signalpositive control−Signalnegative control)−T0control]}
The IC50 values of compounds were calculated by XLfit (ID Business Solutions Ltd., UK) software at 8 concentration points through the following formula: Y=Bottom+(Top−Bottom)/(1+10^((Log IC50−X)*slope factor))
Of which, Y is the inhibition percentage, Bottom is the bottom plateau of the curve (the bottom platform value of S curve), Top is the top plateau of the curve (the top platform value of S curve), X is the logarithm of the concentration of the compound to be measured.

[1] = early clinical trials, cited from earlier work

Chain of TRKA (P04629 33-796): as the sequence (P04629 33-796 G595R) above, with R563G counted along it

| Compound | IC50 (TRKA) [nM] | IC50 (TRKA G595R) [nM] | IC50 (TRKA G667C) [nM] | GI50 (KM12 cells) [nM] | patients in complete remission ([1]; 6 patients, no tumor detectable by existing methods) [%] | patients who achieved objective responses ([1]; 38 patients) [%] | patients in remission for more than a year [1] [patients] |
| --- | --- | --- | --- | --- | --- | --- | --- |
| C[C@H]1CNC(=O)Nc2cnn3ccc(nc23)N2C[C@@H](F)C[C@@H]2c2cc(F)cnc2O1 [Compound 1, (2^2R,2^4S,5S)-2^4,3^5-difluoro-5-methyl-4-oxa-7,9-diaza-1(5,3)-pyrazolo[1,5-a]pyrimidin-3(3,2)-pyridin-2(1,2)-pyrrolidincyclononan-8-one] | 0.24 | 0.26 | 1.63 | 0.43 |  |  |  |
| O=C1NCCOc2ncc(F)cc2[C@H]2C[C@H](F)CN2c2ccn3ncc(c3n2)N1 [Compound 2, (2^2R,2^4S)-2^4,3^5-difluoro-4-oxa-7,9-diaza-1(5,3)-pyrazolo[1,5-a]pyrimidin-3(3,2)-pyridin-2(1,2)-pyrrolidincyclononan-8-one] | 0.97 | 12.2 | 16.3 | 3.12 |  |  |  |
| CN1CCOc2ncc(F)cc2[C@H]2C[C@H](F)CN2c2ccn3ncc(c3n2)NC1=O [Compound 3, (2^2R,2^4S)-2^4,3^5-difluoro-7-methyl-4-oxa-7,9-diaza-1(5,3)-pyrazolo[1,5-a]pyrimidin-3(3,2)-pyridin-2(1,2)-pyrrolidincyclononan-8-one] | 1.46 | 10.2 |  | 33.7 |  |  |  |
| C[C@H]1CCNC(=O)Nc2cnn3ccc(nc23)N2CCC[C@@H]2c2cc(F)cnc2O1 [Compound 4, (2^2R,5S)-3^5-fluoro-5-methyl-4-oxa-8,10-diaza-1(5,3)-pyrazolo[1,5-a]pyrimidin-3(3,2)-pyridin-2(1,2)-pyrrolidincyclodecan-9-one] | 1.08 | 1.4 |  | 2.26 |  |  |  |
| O=C(Nc1cnn2ccc(N3CCC[C@@H]3c3cc(F)ccc3F)nc12)N1CC[C@H](O)C1 [larotrectinib] |  |  |  |  | 12 | 76 | 30 |
